According to ChEMBL document CHEMBL3580659, “One-pot multicomponent synthesis of indole incorporated thiazolylcoumarins and their antibacterial, anticancer and DNA cleavage studies” (2015):

Legend:
Assay type in all cases: functional
CAKI-1 = test: Cytotoxicity against human CAKI-1 cells assessed as cell growth level at 100 nM after 48 hrs by sulforhodamine B assay
SF-268 = test: Cytotoxicity against human SF268 cells assessed as cell growth level at 10 nM after 48 hrs by sulforhodamine B assay
IGROV-1 [1] = test: Cytotoxicity against human IGROV1 cells assessed as cell growth level at 10 nM after 48 hrs by sulforhodamine B assay
UACC-62 [2] = test: Cytotoxicity against human UACC62 cells assessed as cell growth level at 10 uM after 48 hrs by sulforhodamine B assay
NCI-H322M = test: Cytotoxicity against human NCI-H322M cells assessed as cell growth level at 100 uM after 48 hrs by sulforhodamine B assay
SN12C [3] = test: Cytotoxicity against human SN12C cells assessed as cell growth level at 100 uM after 48 hrs by sulforhodamine B assay
A549 = test: Cytotoxicity against human A549/ATCC cells after 48 hrs by sulforhodamine B assay; conditions: A549, 48 h
MOLT-4 = test: Cytotoxicity against human MOLT4 cells assessed as cell growth level at 10 nM after 48 hrs by sulforhodamine B assay
RXF 393 = test: Cytotoxicity against human RXF393 cells assessed as cell growth level at 10 uM after 48 hrs by sulforhodamine B assay
SN12C [4] = test: Cytotoxicity against human SN12C cells assessed as cell growth level at 100 nM after 48 hrs by sulforhodamine B assay
SR [5] = test: Cytotoxicity against human SR cells assessed as cell growth level at 10 uM after 48 hrs by sulforhodamine B assay
MDA-MB-435 = test: Cytotoxicity against human MDA-MB-435 cells after 48 hrs by sulforhodamine B assay; conditions: MDA-MB-435, 48 h
K562 [6] = test: Cytotoxicity against human K562 cells assessed as cell growth level at 100 nM after 48 hrs by sulforhodamine B assay
K562 [7] = test: Cytotoxicity against human K562 cells assessed as cell growth level at 1 uM after 48 hrs by sulforhodamine B assay
MDA-MB-231 = test: Cytotoxicity against human MDA-MB-231/ATCC cells assessed as cell growth level at 100 nM after 48 hrs by sulforhodamine B assay
LOX IMVI [8] = test: Cytotoxicity against human LOXIMVI cells assessed as cell growth level at 1 uM after 48 hrs by sulforhodamine B assay
NCI-H460 [9] = test: Cytotoxicity against human NCI-H460 cells assessed as cell growth level at 100 nM after 48 hrs by sulforhodamine B assay
CCRF-CEM [10] = test: Cytotoxicity against human CCRF-CEM cells assessed as cell growth level at 100 nM after 48 hrs by sulforhodamine B assay
UACC-62 [11] = test: Cytotoxicity against human UACC62 cells assessed as cell growth level at 10 nM after 48 hrs by sulforhodamine B assay
SK-MEL-5 = test: Cytotoxicity against human SK-MEL-5 cells assessed as cell growth level at 100 nM after 48 hrs by sulforhodamine B assay
HL-60(TB) [12] = test: Cytotoxicity against human HL-60(TB) cells after 48 hrs by sulforhodamine B assay; conditions: HL-60, 48 h
LOX IMVI [13] = test: Cytotoxicity against human LOXIMVI cells after 48 hrs by sulforhodamine B assay
SK-MEL-2 = test: Cytotoxicity against human SK-MEL-2 cells assessed as cell growth level at 1 uM after 48 hrs by sulforhodamine B assay
HT-29 = test: Cytotoxicity against human HT-29 cells assessed as cell growth level at 100 nM after 48 hrs by sulforhodamine B assay
SR [14] = test: Cytotoxicity against human SR cells assessed as cell growth level at 100 nM after 48 hrs by sulforhodamine B assay
MDA-MB-468 = test: Cytotoxicity against human MDA-MB-468 cells assessed as cell growth level at 10 uM after 48 hrs by sulforhodamine B assay
SNB-19 [15] = test: Cytotoxicity against human SNB19 cells assessed as cell growth level at 10 uM after 48 hrs by sulforhodamine B assay
SK-OV-3 = test: Cytotoxicity against human SKOV3 cells assessed as cell growth level at 10 nM after 48 hrs by sulforhodamine B assay
HL-60(TB) [16] = test: Cytotoxicity against human HL-60(TB) cells assessed as cell growth level at 100 uM after 48 hrs by sulforhodamine B assay
SNB-19 [17] = test: Cytotoxicity against human SNB19 cells assessed as cell growth level at 10 nM after 48 hrs by sulforhodamine B assay
CCRF-CEM [18] = test: Cytotoxicity against human CCRF-CEM cells after 48 hrs by sulforhodamine B assay
SNB-19 [19] = test: Cytotoxicity against human SNB19 cells assessed as cell growth level at 1 uM after 48 hrs by sulforhodamine B assay
UACC-62 [20] = test: Cytotoxicity against human UACC62 cells after 48 hrs by sulforhodamine B assay; conditions: UACC-62, 48 h
NCI-H460 [21] = test: Cytotoxicity against human NCI-H460 cells after 48 hrs by sulforhodamine B assay; conditions: NCI-H460, 48 h
RPMI-8226 = test: Cytotoxicity against human RPMI8226 cells assessed as cell growth level at 10 nM after 48 hrs by sulforhodamine B assay
ACHN = test: Cytotoxicity against human ACHN cells assessed as cell growth level at 10 uM after 48 hrs by sulforhodamine B assay
HL-60(TB) [22] = test: Cytotoxicity against human HL-60(TB) cells assessed as cell growth level at 10 uM after 48 hrs by sulforhodamine B assay
IGROV-1 [23] = test: Cytotoxicity against human IGROV1 cells assessed as cell growth level at 10 uM after 48 hrs by sulforhodamine B assay
[24] = read-out: LC50 (the source's name)
[25] = read-out: pLC50 (the source's name) (converted)

`O=c1oc2ccccc2cc1-c1csc(N/N=C/c2c[nH]c3ccccc23)n1` showed an Activity (CAKI-1) of 88%, an Activity (SF-268) of 96% and an Activity (IGROV-1 [1]) of 108%. It also gave an Activity (UACC-62 [2]) of 42.96%, an Activity (NCI-H322M) of -10% and an Activity (SN12C [3]) of -51%. For the same compound, the GI50 (A549; read-out: GI50) was 1.54 µM, the CC50 (A549; [24]) was over 100 µM and the TGI (A549; read-out: TGI) was 5.3 µM. For the same compound, the GI50 (A549; read-out: pGI50 (converted)) was 1.55 µM, the CC50 (A549; [25]) was over 100 µM and the TGI (A549; read-out: pTGI) was 5.25 µM. The Activity (MOLT-4) was 92%, the Activity (RXF 393) was 25.19% and the Activity (SN12C [4]) was 90%. For the same compound, the Activity (SR [5]) was -0.54%, the GI50 (MDA-MB-435; read-out: GI50) was 2.1 µM and the CC50 (MDA-MB-435; [24]) was 25.2 µM. For the same compound, the TGI (MDA-MB-435; read-out: TGI) was 5.47 µM, the GI50 (MDA-MB-435; read-out: pGI50 (converted)) was 2.09 µM and the CC50 (MDA-MB-435; [25]) was 25.1 µM. For the same compound, the TGI (MDA-MB-435; read-out: pTGI (converted)) was 5.5 µM, the Activity (K562 [6]) was 110% and the Activity (K562 [7]) was 100%. The Activity (MDA-MB-231) was 97%, the Activity (LOX IMVI [8]) was 74% and the Activity (NCI-H460 [9]) was 93%. For the same compound, the Activity (CCRF-CEM [10]) was 98%, the Activity (UACC-62 [11]) was 95% and the Activity (SK-MEL-5) was 88%. It also gave a GI50 (HL-60(TB) [12]; read-out: GI50) of 0.45 µM, a CC50 (HL-60(TB) [12]; [24]) of over 100 µM and a TGI (HL-60(TB) [12]; read-out: TGI) of 7.64 µM. It also gave a GI50 (HL-60(TB) [12]; read-out: pGI50 (converted)) of 0.457 µM, a CC50 (HL-60(TB) [12]; [25]) of over 100 µM and a TGI (HL-60(TB) [12]; read-out: pTGI (converted)) of 7.59 µM. It also gave a GI50 (LOX IMVI [13]; read-out: GI50) of 1.93 µM, a CC50 (LOX IMVI [13]; [24]) of 6.71 µM and a TGI (LOX IMVI [13]; read-out: TGI) of 3.6 µM. The GI50 (LOX IMVI [13]; read-out: pGI50 (converted)) was 1.91 µM, the CC50 (LOX IMVI [13]; [25]) was 6.76 µM and the TGI (LOX IMVI [13]; read-out: pTGI (converted)) was 3.63 µM. It also gave an Activity (SK-MEL-2) of 90%, an Activity (HT-29) of 105% and an Activity (SR [14]) of 102%. The Activity (MDA-MB-468) was 2.39%, the Activity (SNB-19 [15]) was 39.43% and the Activity (SK-OV-3) was 94%. For the same compound, the Activity (HL-60(TB) [16]) was -23%, the Activity (SNB-19 [17]) was 91% and the GI50 (CCRF-CEM [18]; read-out: GI50) was 0.33 µM. The LC50 (CCRF-CEM [18]; read-out: LC50) was over 100 µM, the TGI (CCRF-CEM [18]; read-out: TGI) was 1.78 µM and the GI50 (CCRF-CEM [18]; read-out: pGI50 (converted)) was 0.339 µM. The LC50 (CCRF-CEM [18]; read-out: pLC50 (converted)) was over 100 µM, the TGI (CCRF-CEM [18]; read-out: pTGI (converted)) was 1.78 µM and the Activity (SNB-19 [19]) was 73%. For the same compound, the GI50 (UACC-62 [20]; read-out: GI50) was 1.6 µM, the CC50 (UACC-62 [20]; [24]) was 7.11 µM and the TGI (UACC-62 [20]; read-out: TGI) was 3.38 µM. For the same compound, the GI50 (UACC-62 [20]; read-out: pGI50 (converted)) was 1.58 µM, the CC50 (UACC-62 [20]; [25]) was 7.08 µM and the TGI (UACC-62 [20]; read-out: pTGI (converted)) was 3.39 µM. The GI50 (NCI-H460 [21]; read-out: GI50) was 2.84 µM, the LC50 (NCI-H460 [21]; read-out: LC50) was over 100 µM and the TGI (NCI-H460 [21]; read-out: TGI) was 9.69 µM. The GI50 (NCI-H460 [21]; read-out: pGI50 (converted)) was 2.82 µM, the LC50 (NCI-H460 [21]; read-out: pLC50 (converted)) was over 100 µM and the TGI (NCI-H460 [21]; read-out: pTGI (converted)) was 9.77 µM. It also gave an Activity (RPMI-8226) of 99%, an Activity (ACHN) of 10.07% and an Activity (HL-60(TB) [22]) of -28.24%. It also gave an Activity (IGROV-1 [23]) of 0.26%.
